One experiment relates to adult rat DRG neurons. Nature of the experiment: Neurite outgrowth in dissociated adult rat dorsal root ganglion cultures. The format is cell-based. To be noted: 72h; BYL719 500 nM with 1938 above 10^-7 M. The source says: Dissociated adult rat dorsal root ganglion (DRG) cultures were used as an in vitro model for neuroregeneration[80],[81]. DRG neurons were isolated from adult male (>250g) Wistar rats as described, with DRGs from each rat cultured separately. Following culling via schedule 1 (rising concentration of CO2), the spinal column was removed and stored in PBS on ice. Cord tissue was removed to expose the DRGs and roots in the intervertebral foramen and the DRGs removed with forceps and scalpel under a dissecting microscope (Olympus SZ40). DRGs were manually cleaned by removal of roots, capsule and capillaries with forceps and then placed in DMEM supplemented with P/S. DRGs were treated with 0.125% collagenase type IV solution at 37°C for 90 min, and then mechanically dissociated by trituration using a 1 ml pipette. The collagenase solution was removed by 2 rounds of centrifugation in complete DMEM (DMEM with 1% P/S and 10% FBS) at 400 xg for 5 min, followed by resuspension of the DRG cell pellet in complete DMEM supplemented with 0.01 mM cytosine arabinoside. DRGs were plated in 75-cm[2] flasks coated with 0.1 mg/ml poly-D-lysine and incubated at 37°C, 5% CO2. […] 9 fields per well were captured and analysed using the CSIRO Neurite Analysis 2 […] in Columbus analysis software (Perkin Elmer). […]

A further experiment has as its system A549 cells. Nature of the experiment: pAKT S473 western blot / Wes, A549. The format is cell-based, human. As for the experimental part:
Unless otherwise indicated, western blotting was performed with ECL detection. For time course studies, A549 cells were seeded at 250,000 cells per well in 6-well plates in RPMI (10% FBS + 1 mM Na-Pyruvate + 1% P/S) and allowed to adhere overnight. The next day they were serum-starved for 4 h prior to treatment with 100 nM insulin or 5 μM 1938, for the indicated time (5 min to 48 h) at 37°C, 5% CO2. For 1938 titration assays in MEFs, cells were seeded at 150,000 cells per well in 6-well plates and allowed to adhere overnight. The next day they were serum-starved for 4 h prior to treatment with insulin (1 μM), 1938 (0.2 to 30 μM, final DMSO concentration of 1.5%) or inhibitors (final DMSO concentration of ≤1.5%) for 15 min at 37°C, 5% CO2. Cells were washed twice with cold PBS and lysed using cold RIPA buffer (25 mM Tris.HCl pH 7.6, 150 mM NaCl, 1% NP-40, 1% sodium deoxycholate, 0.1% SDS supplemented with protease/phosphatase inhibitor cocktail from Merck). To remove cell debris, homogenates were spun at 13,000 rpm for 15 min at 4°C and the supernatant fraction recovered. Protein concentration was determined by colorimetric assay (BCA assay, Promega). Protein extracts were resolved by SDS-PAGE, transferred to nitrocellulose membranes, and incubated overnight at 4°C with specific antibodies as follows: anti-vinculin (Sigma #V9131) and the following antibodies from Cell Signaling Technology (CST): pAKT-S473 (CST #9271), pS6-S240/244 (CST #2215), pPRAS40-T246 (CST #2640) and total S6 (CST #2317). Primary ntibodies were used at 1:1000 dilution except anti-vinculin (1:10000). Secondary antibodies are also from Cell Signalling Technology: Anti rabbit IgG, HRP linked Antibody (CST #7074S), Anti mouse IgG, HRP linked Antibody (CST #7076S). Raw and uncropped blots are shown in Supplementary Fig. 1.
A549 cells were seeded at 200,000 cells per well in 24-well plates in DMEM (10% FBS + 1% P/S) and allowed to adhere overnight. The next day, cells were washed once with PBS before addition of serum-free DMEM for 24 h. […]
(In general: In western blotting, separated proteins are transferred to a membrane and probed.)

For `CCN1CCN(c2ccc(Nc3cc(Nc4cccc5c4N(C(C)=O)CC5)ccn3)cc2)CC1` [Compound 1938], in the experiment on adult rat DRG neurons, the “neurite outgrowth (total length of neurites)” value was “doubling the total length of neurites”. In addition, in the experiment with A549 cells (1938 5 μM, A549 and MCF10A), the “time of peak pAKT^S473 activation” value amounted to 30 min and the “time to induction of pAKT^S473” value is 5 min. Further, in the experiment with A549 cells (A549), the “pAKT^S473 increase” value is on record as “BYL719-sensitive increase in pAKT^S473”.

The values above are taken from PMC7614683, “A small molecule PI3Kα activator for cardioprotection and neuroregeneration” (Nature, 2023).
